Here are results for 5 compounds from PubChem BioAssay AID1745844 (Carcinogenic Potency Database (CPDB), 2022).

Calls of active or inactive are those of the source. How the calls were made is not given here.

This data set relates to rodent lifetime carcinogenesis bioassay, tumor incidence TD50. Briefly: carcinogenic potency in animals, long-term in vivo studies, CPDB compilation (AID 1745844).

Consider `[CH3][Hg][Cl]`, for which the TD50 by setting is: (mouse, strain B6C3F1, females, in feed, site: kidney, lesion: renal-cell adenoma, dosed 104 weeks, study length 104 weeks) 65.8 mg/kg/day; (mouse, strain B6C3F1, males, in feed, site: kidney, lesion: renal-cell adenoma, dosed 104 weeks, study length 104 weeks) 9.83 mg/kg/day; (mouse, strain B6C3F1, males, in feed, site: kidney, lesion: renal-cell carcinoma, dosed 104 weeks, study length 104 weeks) 4.28 mg/kg/day; (mouse, strain B6C3F1, males, in feed, site: kidney, lesion: several types, types named in the paper, dosed 104 weeks, study length 104 weeks) 3.19 mg/kg/day; (mouse, strain Charles River CD1, females, in drinking water, site: any site (literature study), lesion: several types, types named in the paper, dosed 143 weeks, study length 151 weeks) 2.13 mg/kg/day (inactive); (mouse, strain Charles River CD1, males, in drinking water, site: any site (literature study), lesion: malignant tumor, dosed 135 weeks, study length 159 weeks) 9.64 mg/kg/day (inactive). Further, the TD50 (mouse, strain Charles River CD1, males, in drinking water, site: any site (literature study), lesion: several types, types named in the paper, dosed 135 weeks, study length 159 weeks) is 5.63 mg/kg/day (inactive); the TD50 (mouse, strain ICR, females, in feed, site: liver, lesion: hemangioma, dosed 80 weeks, study length 80 weeks) was 26.1 mg/kg/day (inactive); the TD50 (mouse, strain ICR, females, in feed, site: lung, lesion: adenocarcinoma, dosed 80 weeks, study length 80 weeks) is 11.6 mg/kg/day (inactive); the TD50 (mouse, strain ICR, males, in feed, site: kidney, lesion: adenocarcinoma, dosed 78 weeks, study length 78 weeks) is 3.2 mg/kg/day; the TD50 (mouse, strain ICR, males, in feed, site: kidney, lesion: adenocarcinoma, dosed 80 weeks, study length 80 weeks) was 1.48 mg/kg/day; the TD50 (mouse, strain ICR, males, in feed, site: kidney, lesion: adenocarcinoma, dosed 102 weeks, study length 104 weeks) came out at 1.88 mg/kg/day. The TD50 by setting is: (mouse, strain ICR, males, in feed, site: kidney, lesion: adenoma, dosed 80 weeks, study length 80 weeks) 24.1 mg/kg/day; (mouse, strain ICR, males, in feed, site: kidney, lesion: several types, types named in the paper, dosed 78 weeks, study length 78 weeks) 0.896 mg/kg/day; (mouse, strain ICR, males, in feed, site: kidney, lesion: several types, types named in the paper, dosed 80 weeks, study length 80 weeks) 1.36 mg/kg/day; (mouse, strain ICR, males, in feed, site: kidney, lesion: several types, types named in the paper, dosed 102 weeks, study length 104 weeks) 1.69 mg/kg/day; (mouse, strain ICR, males, in feed, site: lung, lesion: adenocarcinoma, dosed 80 weeks, study length 80 weeks) 5.1 mg/kg/day; (rat, strain Sprague-Dawley, females, in feed, site: kidney, lesion: adenoma, dosed 130 weeks, study length 130 weeks) 15.7 mg/kg/day (inactive). The carcinogen call was “negative (inactive)” (mouse, strain Charles River CD1, females, in drinking water, site: any site (literature study), lesion: malignant tumor, dosed 143 weeks, study length 151 weeks); “negative (inactive)” (mouse, strain Charles River CD1, females, in drinking water, site: lung, lesion: one or several types, types not named, dosed 143 weeks, study length 151 weeks); “negative (inactive)” (mouse, strain Charles River CD1, males, in drinking water, site: lung, lesion: one or several types, types not named, dosed 135 weeks, study length 159 weeks); “negative (inactive)” (mouse, strain ICR, females, in feed, site: kidney, lesion: adenoma, dosed 80 weeks, study length 80 weeks); “negative (inactive)” (mouse, strain ICR, females, in feed, site: kidney, lesion: one or several types, types not named, dosed 52 weeks, study length 52 weeks); “negative (inactive)” (mouse, strain ICR, females, in feed, site: kidney, lesion: one or several types, types not named, dosed 78 weeks, study length 78 weeks). Further, the carcinogen call runs as follows: (mouse, strain ICR, females, in feed, site: kidney, lesion: one or several types, types not named, dosed 104 weeks, study length 104 weeks) “negative (inactive)”; (mouse, strain ICR, females, in feed, site: liver, lesion: hepatocellular adenoma, dosed 80 weeks, study length 80 weeks) “negative (inactive)”; (mouse, strain ICR, females, in feed, site: liver, lesion: hepatocellular carcinoma, dosed 80 weeks, study length 80 weeks) “negative (inactive)”; (mouse, strain ICR, females, in feed, site: lung, lesion: adenoma, dosed 80 weeks, study length 80 weeks) “negative (inactive)”; (rat, strain Sprague-Dawley, females, in feed, site: liver, lesion: one or several types, types not named, dosed 52 weeks, study length 52 weeks) “negative (inactive)”; (rat, strain Sprague-Dawley, females, in feed, site: liver, lesion: one or several types, types not named, dosed 78 weeks, study length 78 weeks) “negative (inactive)”. Also, the carcinogen call was “negative (inactive)” (rat, strain Sprague-Dawley, females, in feed, site: liver, lesion: one or several types, types not named, dosed 130 weeks, study length 130 weeks); “negative (inactive)” (rat, strain Sprague-Dawley, males, in feed, site: liver, lesion: one or several types, types not named, dosed 52 weeks, study length 52 weeks); “negative (inactive)” (rat, strain Sprague-Dawley, males, in feed, site: liver, lesion: one or several types, types not named, dosed 78 weeks, study length 78 weeks); “negative (inactive)” (rat, strain Sprague-Dawley, males, in feed, site: liver, lesion: one or several types, types not named, dosed 130 weeks, study length 130 weeks); “negative (inactive)” (rat, strain Wistar, females, in feed, site: liver, lesion: one or several types, types not named, dosed 104 weeks, study length 104 weeks); “negative (inactive)” (rat, strain Wistar, males, in feed, site: liver, lesion: one or several types, types not named, dosed 104 weeks, study length 104 weeks).

As for `CC1=CC(=O)CC(C)(C)C1`, the carcinogen call (mouse, strain B6C3F1, females, by gavage, site: any site (literature study), lesion: several types, types named in the paper, dosed 103 weeks, study length 104 weeks) is “negative (inactive)”. Moreover, the TD50 by setting is: (mouse, strain B6C3F1, females, by gavage, site: liver, lesion: hepatocellular adenoma + hepatocellular carcinoma + neoplastic nodule, dosed 103 weeks, study length 104 weeks) 2740 mg/kg/day; (mouse, strain B6C3F1, males, by gavage, site: all sites, lesion: leukemia, NOS + malignant lymphoma, histiocytic type + malignant lymphoma, mixed type + malignant lymphoma, lymphocytic type, dosed 103 weeks, study length 104 weeks) 236 mg/kg/day; (mouse, strain B6C3F1, males, by gavage, site: all sites, lesion: malignant lymphoma, histiocytic type + malignant lymphoma, mixed type + malignant lymphoma, lymphocytic type, dosed 103 weeks, study length 104 weeks) 203 mg/kg/day; (mouse, strain B6C3F1, males, by gavage, site: all sites, lesion: malignant lymphoma, histiocytic type, dosed 103 weeks, study length 104 weeks) 244 mg/kg/day; (mouse, strain B6C3F1, males, by gavage, site: liver, lesion: hepatocellular adenoma + hepatocellular carcinoma + neoplastic nodule, dosed 103 weeks, study length 104 weeks) 573 mg/kg/day; (mouse, strain B6C3F1, males, by gavage, site: liver, lesion: hepatocellular adenoma + hepatocellular carcinoma, dosed 103 weeks, study length 104 weeks) 573 mg/kg/day. Moreover, the TD50 (mouse, strain B6C3F1, males, by gavage, site: skin + subcutaneous tissue, lesion: fibroma + fibrosarcoma, dosed 103 weeks, study length 104 weeks) worked out at 840 mg/kg/day; the TD50 (mouse, strain B6C3F1, males, by gavage, site: skin + subcutaneous tissue, lesion: fibroma + neurofibrosarcoma + fibrosarcoma + sarcoma, dosed 103 weeks, study length 104 weeks) stood at 882 mg/kg/day; the TD50 (mouse, strain B6C3F1, males, by gavage, site: skin + subcutaneous tissue, lesion: neurofibrosarcoma + fibrosarcoma + sarcoma, dosed 103 weeks, study length 104 weeks) came out at 1210 mg/kg/day; the TD50 (mouse, strain B6C3F1, males, by gavage, site: subcutaneous tissue, lesion: fibroma, dosed 103 weeks, study length 104 weeks) was determined as 1210 mg/kg/day; the TD50 (mouse, strain B6C3F1, males, by gavage, site: subcutaneous tissue, lesion: fibrosarcoma + fibroma + neurofibrosarcoma + sarcoma, dosed 103 weeks, study length 104 weeks) was found to be 703 mg/kg/day; the TD50 (mouse, strain B6C3F1, males, by gavage, site: subcutaneous tissue, lesion: fibrosarcoma + fibroma, dosed 103 weeks, study length 104 weeks) is 654 mg/kg/day. Further, the TD50 is 1260 mg/kg/day (mouse, strain B6C3F1, males, by gavage, site: subcutaneous tissue, lesion: fibrosarcoma + neurofibrosarcoma + sarcoma, dosed 103 weeks, study length 104 weeks); 1170 mg/kg/day (mouse, strain B6C3F1, males, by gavage, site: subcutaneous tissue, lesion: fibrosarcoma, dosed 103 weeks, study length 104 weeks); 16600 mg/kg/day (inactive) (rat, strain Fischer 344, females, by gavage, site: any site (literature study), lesion: several types, types named in the paper, dosed 103 weeks, study length 105 weeks); 237 mg/kg/day (rat, strain Fischer 344, males, by gavage, site: any site (literature study), lesion: several types, types named in the paper, dosed 103 weeks, study length 105 weeks); 774 mg/kg/day (rat, strain Fischer 344, males, by gavage, site: kidney + preputial gland, lesion: tubular-cell adenoma + tubular-cell adenocarcinoma + carcinoma, NOS, dosed 103 weeks, study length 105 weeks); 1210 mg/kg/day (rat, strain Fischer 344, males, by gavage, site: kidney, lesion: tubular-cell adenoma + tubular-cell adenocarcinoma, dosed 103 weeks, study length 105 weeks). The TD50 (rat, strain Fischer 344, males, by gavage, site: liver, lesion: hepatocellular adenoma + hepatocellular carcinoma + neoplastic nodule, dosed 103 weeks, study length 105 weeks) came to 9080 mg/kg/day and the TD50 (rat, strain Fischer 344, males, by gavage, site: preputial gland, lesion: carcinoma, NOS, dosed 103 weeks, study length 105 weeks) was 2250 mg/kg/day.

As for `C=C(C)[C@H]1CC=C(C)C(=O)C1`, the carcinogen call is “negative (inactive)” (mouse, strain B6C3F1, females, by gavage, site: any site (literature study), lesion: several types, types named in the paper, dosed 103 weeks, study length 105 weeks) and “negative (inactive)” (mouse, strain B6C3F1, males, by gavage, site: any site (literature study), lesion: several types, types named in the paper, dosed 103 weeks, study length 105 weeks). Further, the TD50 (mouse, strain B6C3F1, males, by gavage, site: liver, lesion: hepatocellular adenoma + hepatocellular carcinoma + neoplastic nodule, dosed 103 weeks, study length 105 weeks) was 63800 mg/kg/day.

Regarding `CC(=O)Nc1ccc(OCC(O)CNC(C)C)cc1` (stereo unspecified), the carcinogen call is, setting by setting: (mouse, strain AP Alderly Park, females, several routes, site: liver, lesion: one or several types, types not named, dosed 78 weeks, study length 78 weeks) “negative (inactive)”; (mouse, strain AP Alderly Park, females, several routes, site: lung, lesion: one or several types, types not named, dosed 78 weeks, study length 78 weeks) “negative (inactive)”; (rat, strain Alpk:APfSD, females, in feed, site: liver, lesion: one or several types, types not named, dosed 104 weeks, study length 104 weeks) “negative (inactive)”; (rat, strain Alpk:APfSD, males, in feed, site: liver, lesion: one or several types, types not named, dosed 104 weeks, study length 104 weeks) “negative (inactive)”. For the same compound, the TD50 by setting is: (mouse, strain AP Alderly Park, males, several routes, site: liver, lesion: one or several types, types not named, dosed 78 weeks, study length 78 weeks) 24300 mg/kg/day (inactive); (mouse, strain AP Alderly Park, males, several routes, site: lung, lesion: one or several types, types not named, dosed 78 weeks, study length 78 weeks) 383 mg/kg/day (inactive); (rat, strain Alpk:APfSD, males, in feed, site: pituitary gland, lesion: one or several types, types not named, dosed 104 weeks, study length 104 weeks) 23.9 mg/kg/day (inactive); (rat, strain Alpk:APfSD, males, in feed, site: testis, lesion: one or several types, types not named, dosed 104 weeks, study length 104 weeks) 194 mg/kg/day (inactive).

Turning to `CC(O)CNCC(C)O` (stereo unspecified), the carcinogen call reads like this: (rat, strain Wistar, males, in feed, site: liver, lesion: hepatocellular carcinoma, dosed 94 weeks, study length 94 weeks) “negative (inactive)”; (rat, strain Wistar, males, in feed, site: lung, lesion: one or several types, types not named, dosed 94 weeks, study length 94 weeks) “negative (inactive)”; (rat, strain Wistar, males, in feed, site: nasal cavity, lesion: one or several types, types not named, dosed 94 weeks, study length 94 weeks) “negative (inactive)”.

By TD50 is commonly meant the dose at which the toxic effect under study appears in half of the subjects.
